Measured values taken from patent US20250346599A1, “TRICYCLIC PHTHALAZINONE PARP INHIBITORS AND METHODS OF USE” (Valo Health, Inc., priority 2022, published 2025).

Columns and labels:
[1] = target: PARP1 enzyme (Homo sapiens (Human), UniProt P09874); assay: PARP Mass Spectroscopy Assay (PARP1 enzymatic assay, nicotinamide detection); type: biochemical; details: 5 nM PARP1, 5 uM β-NAD, 60 min at RT, NAM by mass spectrometry
Text: Materials and Reagents: The PARP1 enzyme was purchased from BPS Bioscience (cat #80501). Tris-HCl, pH 8.0 was purchased from Corning (cat #46-031-CM). Magnesium chloride was purchased from Thermo Fisher Scientific (previously Honeywell Fluka, cat #63020-1L). All other assay components, activated DNA (cat #D4522), core histones (cat #SRP6590), β-Nicotinamide adenine dinucleotide (β-NAD—cat #N8285), 3ABA PARP1 small molecule inhibitor (from the PARP1 Enzyme Activity Assay kit, cat #17-10149), Sodium Chloride (NaCl, cat #56546-1L), Triton X-100 (cat #93443), Dithiothreitol (DTT, cat #43816-250 ML) were all purchased from Millipore Sigma.
Assay Buffer: The assay buffer includes the following reagents: 50 mM Tris-HCl pH 8.0, 50 mM NaCl, 10 mM, MgCl2, 0.01% Triton X-100, and 1 mM DTT.
PARP1 enzymatic assays were performed in 384-well plates in a total volume of 20 μL in the assay buffer. For concentration response curves, compounds were serially diluted 3-fold from 2 mM highest concentration […] to generate a 10-point curve, and 125 nL was transferred to the assay plate using the Echo acoustic dispenser for a final concentration range of 26.6 μM to […] in 10 μL reaction. Five microliters of 10 nM PARP1 enzyme and 100 nM core histones (2×) mix were added to the assay plates and pre-incubated for 30 mins at room temperature (RT). The reaction was initiated by the addition of a 5 μL of 10 uM β-NAD plus 0.02 mg/mL activated DNA (2×) mix. The reaction is incubated for 60 min at RT. The final concentration of the PARP1 enzyme and substrate concentrations were 5 nM and 5 uM, respectively. The positive control (high signal) and negative control (low signal) wells had 125 nL of DMSO in place of compounds. After the incubation is complete, the reaction is stopped by the addition of 10 μL of 10 uM of the 3ABA PARP1 inhibitor, incubated for 5 min at RT, and placed in the −80 C freezer for shipment to the Valo Health site in Branford Connecticut where mass spectrometry will be used to directly detect quantities of nicotinamide (NAM).
The percent inhibition of enzyme activity was calculated according to the following equation: […]
The values of Ssample, Shigh, and Slow in the equation refer to the NAM concentration detected in the assay wells, high control wells, and low control wells, respectively. To determine inhibitor IC50 values, % inhibition of the CRCs (concentration response curves) was fitted to the standard single-site four-parameter logistic equation.

[2] = target: human MDR1 (P-glycoprotein; P-gp) (Homo sapiens (Human), UniProt P08183); assay: bi-directional MDCK-MDR1 permeability assay; type: in vitro ADME; details: for MDCK-MDR1 Papp A→B (10^−6 cm/s) / Papp A→B: apical to basolateral direction; for MDCK-MDR1 ER / efflux ratio: efflux ratio B→A/A→B; for Papp A→B: dog; for Papp A→B / efflux ratio: MDCK-MDR1; for efflux ratio: human, read-out: MDCK-MDR1 ER
Text: The bi-directional assay containing a Mandin Darby canine kidney (MDCK) cell line transfected with human MDR1 gene (P-glycoprotein; P-gp) designed to overexpress the MDR1 efflux transporter, a major efflux transporter at the blood brain barrier (BBB), uses an established method that measures the rate of flux of a compound across polarized cell monolayers. As well appreciated in the art, the data generated from the MDCK-MDR1 permeability assay may be used to predict in vivo absorption of drugs. The bi-directional MDCK-MDR1 permeability assay can identify and quantify levels of active efflux. Screening compounds in both the apical to basolateral direction (A→B) and basolateral to apical direction (B→A) across the cell monolayer provides a ratio of B→A/A→B (efflux ratio; “ER”). Unlike the Caco-2 assay, the MDCK-MDR1 assay is not subject to potential efflux interference by breast cancer resistance protein (BCRP). […] The data may further be used to predict blood brain barrier (BBB) permeability via calculation from the data of log(permeability-surface area product) (“log PS”), well-understood to be predictive of the in vivo log([brain concentration]/[plasma concentration]).

PARP1 enzyme, sequence (P09874 whole entry): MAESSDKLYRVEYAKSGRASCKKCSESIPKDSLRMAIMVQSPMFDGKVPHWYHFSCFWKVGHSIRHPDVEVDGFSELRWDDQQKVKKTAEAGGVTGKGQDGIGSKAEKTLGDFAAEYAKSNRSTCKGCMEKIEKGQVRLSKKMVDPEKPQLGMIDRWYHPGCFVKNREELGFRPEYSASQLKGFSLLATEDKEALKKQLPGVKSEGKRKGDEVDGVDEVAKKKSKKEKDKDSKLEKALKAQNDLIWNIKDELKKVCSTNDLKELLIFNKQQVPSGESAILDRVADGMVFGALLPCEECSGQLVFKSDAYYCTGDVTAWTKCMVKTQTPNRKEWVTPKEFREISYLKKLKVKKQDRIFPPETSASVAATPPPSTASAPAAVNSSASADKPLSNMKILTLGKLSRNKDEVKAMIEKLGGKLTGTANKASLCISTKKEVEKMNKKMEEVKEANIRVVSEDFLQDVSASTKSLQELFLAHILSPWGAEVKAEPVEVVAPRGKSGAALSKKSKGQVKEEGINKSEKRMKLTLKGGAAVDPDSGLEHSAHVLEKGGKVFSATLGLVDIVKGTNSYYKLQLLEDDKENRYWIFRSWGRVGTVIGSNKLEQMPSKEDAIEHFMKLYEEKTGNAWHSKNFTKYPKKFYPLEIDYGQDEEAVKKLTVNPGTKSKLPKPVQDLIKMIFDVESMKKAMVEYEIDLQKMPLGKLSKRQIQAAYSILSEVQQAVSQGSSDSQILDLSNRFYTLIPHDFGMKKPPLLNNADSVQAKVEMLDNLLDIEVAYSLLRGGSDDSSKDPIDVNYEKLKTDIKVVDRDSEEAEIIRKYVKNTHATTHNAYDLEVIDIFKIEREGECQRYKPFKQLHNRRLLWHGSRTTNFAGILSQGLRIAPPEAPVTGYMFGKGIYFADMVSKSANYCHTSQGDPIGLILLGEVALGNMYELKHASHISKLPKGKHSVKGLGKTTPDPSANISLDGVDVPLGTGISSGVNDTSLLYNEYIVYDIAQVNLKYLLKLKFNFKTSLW
human MDR1 (P-glycoprotein; P-gp), sequence (P08183 whole entry): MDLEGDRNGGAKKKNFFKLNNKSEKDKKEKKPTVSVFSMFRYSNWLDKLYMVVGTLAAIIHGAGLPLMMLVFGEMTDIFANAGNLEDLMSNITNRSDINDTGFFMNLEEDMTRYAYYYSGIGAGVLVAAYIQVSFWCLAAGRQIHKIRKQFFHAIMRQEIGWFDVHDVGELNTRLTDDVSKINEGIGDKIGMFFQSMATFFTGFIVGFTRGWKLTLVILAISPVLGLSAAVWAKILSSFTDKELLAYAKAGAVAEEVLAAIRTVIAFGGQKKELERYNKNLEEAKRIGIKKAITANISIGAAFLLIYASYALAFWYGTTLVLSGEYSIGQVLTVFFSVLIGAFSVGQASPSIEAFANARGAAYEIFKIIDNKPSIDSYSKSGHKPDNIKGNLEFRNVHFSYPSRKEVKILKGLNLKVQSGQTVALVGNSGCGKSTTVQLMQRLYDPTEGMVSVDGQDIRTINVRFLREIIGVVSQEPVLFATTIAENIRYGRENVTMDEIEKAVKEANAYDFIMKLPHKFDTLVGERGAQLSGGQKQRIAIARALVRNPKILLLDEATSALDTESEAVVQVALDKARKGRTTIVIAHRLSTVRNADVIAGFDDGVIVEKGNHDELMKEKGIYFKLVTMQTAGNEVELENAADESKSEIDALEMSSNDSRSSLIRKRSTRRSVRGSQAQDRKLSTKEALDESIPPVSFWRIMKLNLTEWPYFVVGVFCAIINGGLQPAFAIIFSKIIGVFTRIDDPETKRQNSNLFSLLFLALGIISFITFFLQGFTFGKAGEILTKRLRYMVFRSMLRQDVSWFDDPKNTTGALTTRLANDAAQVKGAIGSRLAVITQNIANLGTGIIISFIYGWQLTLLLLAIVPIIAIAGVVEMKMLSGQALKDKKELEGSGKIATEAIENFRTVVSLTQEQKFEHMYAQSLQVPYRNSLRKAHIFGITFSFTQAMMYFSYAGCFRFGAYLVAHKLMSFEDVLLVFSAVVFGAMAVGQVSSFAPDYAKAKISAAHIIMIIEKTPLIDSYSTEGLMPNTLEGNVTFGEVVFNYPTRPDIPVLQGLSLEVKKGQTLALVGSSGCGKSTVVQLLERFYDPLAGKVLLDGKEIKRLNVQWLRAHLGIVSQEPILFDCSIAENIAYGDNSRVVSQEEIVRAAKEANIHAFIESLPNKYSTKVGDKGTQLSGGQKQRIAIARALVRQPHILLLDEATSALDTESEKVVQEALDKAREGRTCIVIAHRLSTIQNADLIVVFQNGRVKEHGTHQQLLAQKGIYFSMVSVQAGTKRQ

Row | Compound | IC50 [1] [µM] | MDCK-MDR1 Papp A→B (10^−6 cm/s) [2] | MDCK-MDR1 ER [2] | Papp A→B [2] [×10⁻⁶ cm/s] | efflux ratio [2]
1 | O=c1[nH]nc2c3c(cc(F)cc13)N[C@@H]([C@@H]1CCOC1)[C@@H]2c1ccccc1Cl [Compound 0121D] | 0.043 | 3.66 10^−6 cm/s | 5.77 |  | 
2 | C[C@H]1Nc2cc(F)cc3c(=O)[nH]nc(c23)[C@@H]1c1ccccc1Cl [Compound 0172A, (8R,9R)-9-(2-chlorophenyl)-5-fluoro-8-methyl-2,7,8,9-tetrahydro-3H-pyrido[4,3,2-de]phthalazin-3-one] | 0.01 |  |  | 11 | 0.658
3 | C[C@H]1Nc2cc(F)cc3c(=O)[nH]nc(c23)[C@@H]1c1ccc(F)cc1F [Compound 0174A, (8R,9R)-9-(2,4-difluorophenyl)-5-fluoro-8-methyl-2,7,8,9-tetrahydro-3H-pyrido[4,3,2-de]phthalazin-3-one] | 0.036 |  |  | 14 | 0.532
4 | N#Cc1ccc([C@H]2CNc3cc(F)cc4c(=O)[nH]nc2c34)c(F)c1 [Compound 0187B] | 0.041 | 8.56 10^−6 cm/s | 1.67 |  | 
5 | O=c1[nH]nc2c3c(cc(F)cc13)NCC2c1ccc(Cl)c(F)c1 (stereo not drawn) [Compound 0188-5, 9-(4-chloro-3-fluorophenyl)-5-fluoro-2,7,8,9-tetrahydro-3H-pyrido[4,3,2-de]phthalazin-3-one] | 0.042 |  |  | 11.7 | 0.522
6 | O=c1[nH]nc2c3c(cc(F)cc13)NC[C@H]2c1ccc(Cl)c(F)c1 [Compound 0188A, (R)-9-(4-chloro-3-fluorophenyl)-5-fluoro-2,7,8,9-tetrahydro-3H-pyrido[4,3,2-de]phthalazin-3-one] | 0.028 |  |  | 11.7 | 0.541
7 | O=c1[nH]nc2c3c(cc(F)cc13)NCC2c1ccc(Cl)cc1F (stereo not drawn) [Compound 0189-6] | 0.041 | 10.6 10^−6 cm/s | 0.59 |  | 
8 | O=c1[nH]nc2c3c(cc(F)cc13)NC[C@@H]2c1ccc(Cl)cc1F [Compound 0189B] | 0.029 | 15.6 10^−6 cm/s | 0.538 |  | 
9 | C[C@H]1Nc2cc(F)cc3c(=O)[nH]nc(c23)[C@@H]1c1ccc(C#N)c(F)c1 [Compound 0193A] | 0.024 | 5.83 10^−6 cm/s | 2.63 |  | 
10 | C[C@H]1Nc2cc(F)cc3c(=O)[nH]nc(c23)[C@@H]1c1ccc(C#N)cc1F [Compound 0194A] | 0.002 | 6.96 10^−6 cm/s | 2.22 |  | 
11 | C[C@H]1Nc2cc(F)cc3c(=O)[nH]nc(c23)[C@@H]1c1ccc(Cl)c(F)c1 [Compound 0195A, (8R,9R)-9-(4-chloro-3-fluorophenyl)-5-fluoro-8-methyl-2,7,8,9-tetrahydro-3H-pyrido[4,3,2-de]phthalazin-3-one] | 0.021 |  |  | 13.9 | 0.699
12 | C[C@@H]1Nc2cc(F)cc3c(=O)[nH]nc(c23)[C@H]1c1ccc(Cl)c(F)c1 [Compound 0195B, (8S,9S)-9-(4-chloro-3-fluorophenyl)-5-fluoro-8-methyl-2,7,8,9-tetrahydro-3H-pyrido[4,3,2-de]phthalazin-3-one] | 0.026 |  |  | 16.4 | 0.691
13 | C[C@H]1Nc2cc(F)cc3c(=O)[nH]nc(c23)[C@@H]1c1ccc(Cl)cc1F [Compound 0196A] | 0.009 | 13 10^−6 cm/s | 0.537 |  | 
14 | C[C@@H]1Nc2cc(F)cc3c(=O)[nH]nc(c23)[C@@H]1[C@H]1CCCCN1C [Compound 0199C] | 0.038 | 0.506 10^−6 cm/s | 17.9 |  | 
15 | CC[C@@H]1Nc2cc(F)cc3c(=O)[nH]nc(c23)[C@H]1c1ccccc1Cl [Compound 0206A, (11S,12S)-12-(2-chlorophenyl)-11-ethyl-7-fluoro-2,3,10-triazatricyclo[7.3.1.0^{5,13}]trideca-1,5(13),6,8-tetraen-4-one] | 0.009 | 13.4 10^−6 cm/s | 0.695 |  | 
